The record followed here is US11136311B2, “Heteroaromatic derivatives as NIK inhibitors” (Janssen Pharmaceutica NV, priority 2016, dated 2021).

Like-named read-outs stand apart in the source and are kept apart here.

The target in test [1] is recombinant human NF-kappaB-inducing kinase (NIK/MAP3K14) (Homo sapiens (Human), UniProt Q99558). The experiment in a line: Inhibition of auto-phosphorylation of recombinant human NIK/MAP3K14 activity (AlphaScreen). It is filed as biochemical. The settings on record: averaged values over all measurements on all batches. How it is done:
Inhibition of auto-phosphorylation of recombinant human NF-kappaB-inducing kinase (NIK/MAP3K14) activity (AlphaScreen®)
NIK/MAP3K14 auto-phosphorylation activity was measured using the AlphaScreen® (αscreen) format (Perkin Elmer). All compounds tested were dissolved in dimethyl sulfoxide (DMSO) and further dilutions were made in assay buffer. Final DMSO concentration was 1% (v/v) in assays. Assay buffer was 50 mM Tris pH 7.5 containing 1 mM EGTA (ethylene glycol tetraacetic acid), 1 mM DTT (dithiothreitol), 0.1 mM Na3VO4, 5 mM MgCl2, 0.01% Tween® 20. Assays were carried out in 384 well Alphaplates (Perkin Elmer). Incubations consisted of compound, 25 microM Adenosine-5′-triphosphate (ATP), and 0.2 nM NIK/MAP3K14. Incubations were initiated by addition of GST-tagged NIK/MAP3K14 enzyme, carried out for 1 h at 25° C. and terminated by addition of stop buffer containing anti-phospho-IKK Ser176/180 antibody. Protein A Acceptor and Glutathione-Donor beads were added before reading using an EnVision® Multilabel Plate Reader (Perkin Elmer). Signal obtained in the wells containing blank samples was subtracted from all other wells and IC50's were determined by fitting a sigmoidal curve to % inhibition of control versus Log10 compound concentration.

The subject of test [2] is P-IKKα levels in L363 cells. The experiment in a line: Effect of compounds on P-IKKα levels in L363 (NIK translocated multiple myeloma) cells. It is filed as cell-based, human. Particulars: averaged values, read-out: Inhibition of pIKKα_L-363 (IC50 (nM)). How it is done: Effect of compounds on P-IKKα levels in L363 (NIK translocated multiple myeloma) cells
All compounds tested were dissolved in DMSO and further dilutions were made in culture medium. Final DMSO concentration was 1% (v/v) in cell assays. The human L363 cells (ATCC) were cultured in RPMI 1640 medium supplemented with GlutaMax and 10% fetal calf serum (PAA). Cells were routinely maintained at densities of 0.2×10^6 cells per ml-1×10^6 cells per ml at 37° C. in a humidified 5% CO2 atmosphere. Cells were passaged twice a week splitting back to obtain the low density. Cells were seeded in 96 well plates (Nunc 167008) at 2×10^6 per ml media in a volume of 75 μl per well plus 25 μl 1 μg/ml recombinant human B-cell activating factor (BAFF/BLyS/TNFSF13B). Seeded cells were incubated at 37° C. in a humidified 5% CO2 atmosphere for 24 hr. Drugs and/or solvents were added (20 μl) to a final volume of 120 μl. Following 2 hr treatment plates were removed from the incubator and cell lysis was achieved by the addition of 30 μl 5× lysis buffer followed by shaking on a plate shaker at 4° C. for 10 min. At the end of this incubation lysed cells were centrifuged at 800×g for 20 min at 4° C. and the lysate was assessed for P-IKKα levels by sandwich immuno-assay carried out in anti-rabbit antibody coated Mesoscale plates. Within an experiment, the results for each treatment were the mean of 2 replicate wells. For initial screening purposes, compounds were tested using an 8 point dilution curve (serial 1:3 dilutions). For each experiment, controls (containing MG132 and BAFF but no test drug) and a blank incubation (containing MG132 and BAFF and 10 μM ADS125117, a test concentration known to give full inhibition) were run in parallel. The blank incubation value was subtracted from all control and sample values. To determine the IC50 a sigmoidal curve was fitted to the plot of % inhibition of control P-IKKα levels versus Log10 compound concentration.

A further test relates to JJN-3 cells. The experiment in a line: Antiproliferative activity on JJN-3 (NIK translocated) multiple myeloma cells (CellTiter-Glo). Type of test: cell-based, human. Particulars: JJN-3 (NIK translocated) cells, 96 hr, averaged values, read-out: JJN-3 Proliferation inhibition (IC50 (nM)). How it is done:
(§1) Determination of antiproliferative activity on JJN-3 (NIK translocated) and KMS12-BM (NIK WT) multiple myeloma cells
(§2) All compounds tested were dissolved in DMSO and further dilutions were made in culture medium. Final DMSO concentration was 0.3% (v/v) in cell proliferation assays. Viability was assessed using CellTiter-Glo cell viability assay kit (Promega). The human JJN-3 and KMS12-BM cells (DSMZ) were cultured in RPMI 1640 medium supplemented with 2 mM L-glutamine, and 10% fetal calf serum (PAA). Cells were routinely kept as suspension cells at 37° C. in a humidified 5% CO2 atmosphere. Cells were passaged at a seeding density of 0.2×10^6/ml twice a week. Cells were seeded in black tissue culture treated 96-well plates (Perkin Elmer). Densities used for plating ranged from 15000 (JJN3) to 20000 (KMS12BM) cells per well in a total volume of 135 μl medium. Drugs and/or solvents were added (15 μl) to a final volume of 150 μl. Following 96 hr of treatment, plates were removed from the incubator and allowed to equilibrate to room temperature for approx 10 min. 75 μl CellTiter-Glo reagent was added to each well that was then covered (Perkin Elmer Topseal) and shaken on plate shaker for 10 min. Luminescence was measured on a HTS Topcount (Perkin Elmer). Within an experiment, the results for each treatment were the mean of 2 replicate wells. For initial screening purposes, compounds were tested using a 9 point dilution curve (serial 1:3 dilutions). For each experiment, controls (containing no drug) and a blank incubation (containing cells read at the time of compound addition) were run in parallel. The blank value was subtracted from all control and sample values. For each sample, the mean value for cell growth (in relative light units) was expressed as a percentage of the mean value for cell growth of the control.
(ATP-based viability assays read luminescence as a measure of living cells.)

The next test relates to KMS12-BM cells. The experiment in a line: Antiproliferative activity on KMS12-BM (NIK WT) multiple myeloma cells (CellTiter-Glo). The settings on record: KMS12-BM (NIK WT) cells, 96 hr, averaged values, read-out: KMS-12 Proliferation inhibition (IC50 (nM)). Type of test: cell-based, human. How it is done: as §1, §2
The mark [3] stands for this setting: Homo sapiens, L-363, L363 cells.

Sequence of recombinant human NF-kappaB-inducing kinase (NIK/MAP3K14) (Q99558 whole entry): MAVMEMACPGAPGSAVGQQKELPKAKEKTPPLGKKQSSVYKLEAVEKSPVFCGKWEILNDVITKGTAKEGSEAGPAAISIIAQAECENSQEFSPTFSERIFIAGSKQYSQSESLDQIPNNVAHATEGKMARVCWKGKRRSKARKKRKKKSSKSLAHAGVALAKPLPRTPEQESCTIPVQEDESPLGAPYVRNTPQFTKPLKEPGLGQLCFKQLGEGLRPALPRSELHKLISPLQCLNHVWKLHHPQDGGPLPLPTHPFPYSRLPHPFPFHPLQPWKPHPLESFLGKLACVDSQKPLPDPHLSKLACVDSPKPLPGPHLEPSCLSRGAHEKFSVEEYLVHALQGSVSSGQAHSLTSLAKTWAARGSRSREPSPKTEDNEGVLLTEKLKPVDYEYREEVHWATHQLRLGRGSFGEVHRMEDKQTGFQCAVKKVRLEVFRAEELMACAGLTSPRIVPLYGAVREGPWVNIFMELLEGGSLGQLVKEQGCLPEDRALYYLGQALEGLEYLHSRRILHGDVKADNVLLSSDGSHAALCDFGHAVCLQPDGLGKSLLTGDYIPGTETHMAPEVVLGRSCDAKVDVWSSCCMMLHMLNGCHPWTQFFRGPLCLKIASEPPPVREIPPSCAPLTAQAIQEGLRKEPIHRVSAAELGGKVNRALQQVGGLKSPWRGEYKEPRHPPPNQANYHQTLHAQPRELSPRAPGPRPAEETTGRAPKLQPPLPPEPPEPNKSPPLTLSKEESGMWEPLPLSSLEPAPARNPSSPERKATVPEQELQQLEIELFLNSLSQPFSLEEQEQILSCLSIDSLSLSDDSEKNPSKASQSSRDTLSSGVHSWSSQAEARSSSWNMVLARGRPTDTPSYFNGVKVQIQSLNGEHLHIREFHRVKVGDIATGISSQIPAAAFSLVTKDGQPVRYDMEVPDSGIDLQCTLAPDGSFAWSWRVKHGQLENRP

With `CC(C)CCc1nn(CCN(C)C)cc1Nc1nccc(-c2cc(C#N)c3c(c2)[C@@](C)(CO)CN3)n1` [Compound 101], the IC50 came to 6 nM in test [1]; 234 nM in test [2] (setting [3]); 1510 nM with JJN-3 cells (Homo sapiens, JJN-3, 96 h); 5250 nM in the test on KMS12-BM cells (Homo sapiens, KMS-12-BM, 96 h).
Turning to `CN(C)C(=O)Cn1nc(Cl)cc1Nc1nccc(-c2cc(C#N)c3c(c2)[C@@](C)(CO)CN3)n1` [Compound 116], the values for the IC50 in test [1] and in test [2] (setting [3]) were 9.3 nM and 269 nM, respectively.
On to `Cn1ccc(Nc2nccc(-c3cc(C#N)c4c(c3)[C@@](C)(CN)CN4)n2)n1` [Compound 222], for which the results for the IC50 in test [1] and in test [2] (setting [3]) were 12 nM and 15 nM, respectively.
Take `Cn1ccc(Nc2nccc(-c3cc(C#N)c4c(c3)[C@](C)(CN)CN4)n2)n1` [Compound 223]: the IC50 in test [1] turned out to be 224 nM; in test [2] (L363 cells), 269 nM.
For `CNC(=O)c1c(Nc2nccc(-c3cc(C#N)c4c(c3)[C@@](C)(CO)CN4)n2)cnn1C` [Compound 190], the IC50 in test [1] came out at 11.7 nM; in test [2] (setting [3]), 110 nM.
On to `Cc1nn(C)cc1Nc1nccc(-c2cc(C#N)c3c(c2)C(C)(CO)CN3)n1` (stereo not shown) [Compound 7], for which the IC50 was 2 nM in test [2] (setting [3]); 112 nM with JJN-3 cells (Homo sapiens, JJN-3, 96 h); approximately 1740 nM in the test with KMS12-BM cells (Homo sapiens, KMS-12-BM, 96 h).
For the compound `Cc1cc(Nc2nccc(-c3cc(C#N)c4c(c3)[C@@](C)(CO)CN4)n2)n(CC2CCN(CC(=O)O)CC2)n1` [Compound 214], the IC50 is 18.6 nM in test [1] and 2630 nM in test [2] (setting [3]).
For the compound `Cc1cc(Nc2nccc(-c3cc(C#N)c4c(c3)[C@@](C)(CO)CN4)n2)n(CC2CCn3ccnc3C2)n1` (mixture of isomers) [Compound 202], the values for the IC50 in test [1] and in test [2] (setting [3]) were 7.2 nM and 1950 nM, respectively.
The matching figures for `CC(C)Oc1nn(CCN2CCOCC2)cc1Nc1nccc(-c2cc(C#N)c3c(c2)[C@@](C)(CO)CN3)n1` [Compound 207]: 15.5 nM and 93 nM.
Take `CNC(=O)c1cc(Nc2nccc(-c3cc(C#N)c4c(c3)[C@@](C)(CO)CN4)n2)n(CC(C)C)n1` [Compound 219]: the IC50 in test [1] worked out at 9.5 nM; in test [2] (setting [3]), 100 nM; with JJN-3 cells (Homo sapiens, JJN-3, 96 h), 214 nM.
`Cc1cc(Nc2nccc(-c3cc(C#N)c4c(c3)[C@@](C)(CO)CN4)n2)n(CC2CCN(C)C(=O)C2)n1` (mixture of isomers) [Compound 171]: the IC50 in test [1] worked out at 6.2 nM; in test [2] (setting [3]), 1440 nM.
For the compound `CC(C)n1nc(C(=O)N(C)C2CC2)cc1Nc1nccc(-c2cc(C#N)c3c(c2)[C@@](C)(CO)CN3)n1` [Compound 211], the IC50 in test [1] was 14.8 nM; in test [2] (setting [3]) it was 204 nM.
The matching figures for `CN1CCN(Cc2c(Nc3nccc(-c4cc(C#N)c5c(c4)[C@@](C)(CO)CN5)n3)cnn2C)CC1` [Compound 209]: 28.2 nM and 141 nM.
For the compound `Cn1ncc(Nc2nccc(-c3cc(C#N)c4c(c3)[C@@](C)(CO)CN4)n2)c1C(=O)N1CCCC1` [Compound 191], the IC50 in test [1] was 107 nM; in test [2] (setting [3]), 4470 nM.
The matching figures for `Cc1cc(Nc2nccc(-c3cc(C#N)c4c(c3)[C@@](C)(CO)CN4)n2)n(CC(=O)N(C)C)n1` [Compound 206]: 2.9 nM and 31 nM.
The matching figures for `Cn1ncc(Nc2nccc(-c3cc(C#N)c4c(c3)[C@@](C)(CO)CN4)n2)c1OC1COC1` [Compound 193]: 25.1 nM and 91 nM.
For `CN1CCOCC1c1cc(Nc2nccc(-c3cc(C#N)c4c(c3)[C@@](C)(CO)CN4)n2)nn1C` (mixture of isomers) [Compound 215], the values for the IC50 in test [1] and in test [2] (setting [3]) were 168 nM and 3490 nM, respectively.
As for `COCCCn1nc(C)cc1Nc1nccc(-c2cc(C#N)c3c(c2)[C@@](C)(CO)CN3)n1` [Compound 49], the IC50 in test [2] (setting [3]) was 11 nM; in the test with JJN-3 cells (Homo sapiens, JJN-3, 96 h), 134 nM; in the test on KMS12-BM cells (Homo sapiens, KMS-12-BM, 96 h), 2090 nM.
Regarding `C[C@]1(CO)CNc2c(C#N)cc(-c3ccnc(Nc4cn(CC(F)F)nc4C(=O)N4CCCC4)n3)cc21` [Compound 189], the IC50 in test [1] was 17 nM; in test [2] (setting [3]) it was 51 nM.
With `CN1CCC(n2ccc(Nc3nccc(-c4cc(C#N)c5c(c4)[C@@](C)(CO)CN5)n3)n2)CC1` [Compound 37], the IC50 in test [1] came to 2 nM; in the test on JJN-3 cells (Homo sapiens, JJN-3, 96 h), 162 nM; in the test with KMS12-BM cells (Homo sapiens, KMS-12-BM, 96 h) it was 182 nM.
As for `Cc1cc(Nc2nccc(-c3cc(C#N)c4c(c3)[C@@](C)(CO)CN4)n2)n(CC(=O)N(C)C(C)C)n1` [Compound 79], the IC50 in test [1] is 8.3 nM; with JJN-3 cells (Homo sapiens, JJN-3, 96 h), 2240 nM; with KMS12-BM cells (Homo sapiens, KMS-12-BM, 96 h), more than 10000 nM.
The matching figures for `CC(C)n1ccc(Nc2nccc(-c3cc(C#N)c4c(c3)[C@@](C)(CO)CN4)n2)n1` [Compound 48]: 5.1 nM, 89 nM and 263 nM.
The matching figures for `CC1(CO)CNc2c(C#N)cc(-c3ccnc(Nc4cnn(CC(F)F)c4)n3)cc21` (stereo not shown) [Compound 30]: 3.2 nM, 47 nM and approximately 170 nM.
Turning to `CCOCCn1nc(C)cc1Nc1nccc(-c2cc(C#N)c3c(c2)[C@@](C)(CO)CN3)n1` [Compound 44], the IC50 in test [1] came to 4.5 nM; with JJN-3 cells (Homo sapiens, JJN-3, 96 h) it was 324 nM; in the test on KMS12-BM cells (Homo sapiens, KMS-12-BM, 96 h), 8710 nM.
The matching figures for `Cc1coc(Nc2nccc(-c3cc(C#N)c4c(c3)[C@@](C)(CO)CN4)n2)n1` [Compound 147]: 9.6 nM, approximately 436 nM and approximately 5010 nM.
On the same counts, the results for `COCCn1nc(C)cc1Nc1nccc(-c2cc(C#N)c3c(c2)C(C)(CO)CN3)n1` (stereo not shown) [Compound 14] are 7.1 nM, 234 nM and approximately 7240 nM.
Regarding `Cn1cc(Nc2nccc(-c3cc(C#N)c4c(c3)[C@@](C)(CO)CN4)n2)c(C(F)(F)F)n1` [Compound 64], the IC50 in test [1] was 1.9 nM; in the test with JJN-3 cells (Homo sapiens, JJN-3, 96 h), 240 nM; with KMS12-BM cells (Homo sapiens, KMS-12-BM, 96 h), 3240 nM.
Take `CN(CCO)C[C@@]1(C)CNc2c(C#N)cc(-c3ccnc(Nc4ccn(C)n4)n3)cc21` [Compound 174]: the figures for the IC50 (in test [1]; in the test on JJN-3 cells; with KMS12-BM cells) were 35 nM, 1550 nM and 3160 nM, respectively.
